Measurements: ChEMBL document CHEMBL1201862, “PubChem BioAssay data set” (2004)
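Values below derive from 48-hour exposures of cells grown in 96-well plates, with endpoints linearly interpolated between the two concentrations bracketing the appropriate inhibition level. GI50: concentration for 50% inhibition of growth.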 The source made the active and inactive calls. Rule as the data show it: active = GI50 up to about 1.1 µM and inactive = higher.

What was measured:
Test in all cases: NCI tumour cell line growth inhibition, 48 h
[1] = tested on: SNB-19
[2] = tested on: NCI-H522
[3] = tested on: A498
[4] = tested on: HL-60
[5] = tested on: SF-268
[6] = tested on: SR
[7] = tested on: SN12C
[8] = tested on: NCI-H23
[9] = tested on: SW-620
[10] = tested on: LOX IMVI
[11] = tested on: HCT-116
[12] = tested on: HOP-62
[13] = tested on: UACC-62
[14] = tested on: HCC 2998
[15] = tested on: CCRF-CEM
[16] = tested on: NCI-H226
[17] = tested on: 786-0
[18] = tested on: UACC-257
[19] = tested on: SF-295
[20] = tested on: RPMI-8226
[21] = tested on: KM-20L2
[22] = tested on: M14
[23] = tested on: NCI-H460
[24] = tested on: K562
[25] = tested on: DLD-1
[26] = tested on: Malme-3M
[27] = tested on: OVCAR-5
[28] = tested on: CAKI-1
[29] = tested on: OVCAR-4
[30] = tested on: A549
[31] = tested on: UO-31
[32] = tested on: LXFL 529
[33] = tested on: KM12
[34] = tested on: OVCAR-8
[35] = tested on: DMS-114
[36] = tested on: ACHN
[37] = tested on: COLO 205
[38] = tested on: MOLT-4
[39] = tested on: OVCAR-3
[40] = tested on: DMS-273
[41] = tested on: SF-539
[42] = tested on: EKVX
[43] = tested on: SK-MEL-5
[44] = tested on: IGROV-1
[45] = tested on: RXF 393
[46] = tested on: MDA-MB-435
[47] = tested on: HCT-15
[48] = tested on: SK-MEL-28
[49] = tested on: NCI/ADR-RES
[50] = tested on: PC-3
[51] = tested on: MDA-MB-231
[52] = tested on: T47D
[53] = tested on: BT-549
[54] = tested on: TK-10
[55] = tested on: MDA-N
[56] = tested on: HOP-92
[57] = tested on: HT-29
[58] = tested on: SK-MEL-2
[59] = tested on: Hs-578T
[60] = tested on: DU-145
[61] = tested on: MCF7
[62] = tested on: SNB-75
[63] = tested on: SK-OV-3
[64] = tested on: U-251

Q: For `Cc1cc(O)c2c(c1)OC1(C)CCC3C(C)(C)CCCC34COC2C14` (stereo not drawn), which GI50 [1] is on record?
A: 18.3 µM (inactive)

Q: What about the GI50 [2] of the same molecule?
A: 17.6 µM (inactive)

Q: And the GI50 [3]?
A: 13.2 µM (inactive)

Q: What about the GI50 [4] of the same molecule?
A: 16.6 µM (inactive)

Q: What about the GI50 [5] of the same molecule?
A: 13.6 µM (inactive)

Q: What about the GI50 [6] of the same molecule?
A: > 10 µM (inactive)

Q: What about the GI50 [7] of the same molecule?
A: 16.7 µM (inactive)

Q: What about the GI50 [8] of the same molecule?
A: 17.6 µM (inactive)

Q: And the GI50 [9]?
A: 15.5 µM (inactive)

Q: And the GI50 [10]?
A: 14 µM (inactive)

Q: And the GI50 [11]?
A: 14.3 µM (inactive)

Q: And the GI50 [12]?
A: 14.1 µM (inactive)

Q: And the GI50 [13]?
A: 19.2 µM (inactive)

Q: And the GI50 [14]?
A: 14.7 µM (inactive)

Q: What about the GI50 [15] of the same molecule?
A: 20 µM (inactive)

Q: What about the GI50 [16] of the same molecule?
A: 14 µM (inactive)

Q: And the GI50 [17]?
A: 14.4 µM (inactive)

Q: What about the GI50 [18] of the same molecule?
A: 15.5 µM (inactive)

Q: What about the GI50 [19] of the same molecule?
A: 15.1 µM (inactive)

Q: And the GI50 [20]?
A: > 10 µM (inactive)

Q: What about the GI50 [21] of the same molecule?
A: 16.6 µM (inactive)

Q: And the GI50 [22]?
A: 14.4 µM (inactive)

Q: What about the GI50 [23] of the same molecule?
A: 16.4 µM (inactive)

Q: What about the GI50 [24] of the same molecule?
A: 20.8 µM (inactive)

Q: And the GI50 [25]?
A: 20.4 µM (inactive)

Q: And the GI50 [26]?
A: 13.3 µM (inactive)

Q: What about the GI50 [27] of the same molecule?
A: 14.7 µM (inactive)

Q: And the GI50 [28]?
A: 18.3 µM (inactive)

Q: What about the GI50 [29] of the same molecule?
A: 18.6 µM (inactive)

Q: And the GI50 [30]?
A: 13.1 µM (inactive)

Q: What about the GI50 [31] of the same molecule?
A: 16.7 µM (inactive)

Q: What about the GI50 [32] of the same molecule?
A: 15 µM (inactive)

Q: And the GI50 [33]?
A: 16.8 µM (inactive)

Q: And the GI50 [34]?
A: 16.7 µM (inactive)

Q: What about the GI50 [35] of the same molecule?
A: 13.9 µM (inactive)

Q: And the GI50 [36]?
A: 12.7 µM (inactive)

Q: What about the GI50 [37] of the same molecule?
A: 14.4 µM (inactive)

Q: What about the GI50 [38] of the same molecule?
A: 0.141 µM (active)

Q: What about the GI50 [39] of the same molecule?
A: 13.4 µM (inactive)

Q: And the GI50 [40]?
A: 14 µM (inactive)

Q: And the GI50 [41]?
A: 6.43 µM (inactive)

Q: And the GI50 [42]?
A: 11.9 µM (inactive)

Q: And the GI50 [43]?
A: 14.4 µM (inactive)

Q: What about the GI50 [44] of the same molecule?
A: 19.7 µM (inactive)

Q: `NC(CCC(=O)NC(CSCC1C(=O)Nc2ccccc21)C(=O)NCC(=O)O)C(=O)O` (stereo not drawn) was tested. Which GI50 [45] did it give?
A: 0.855 µM (active)

Q: What about the GI50 [1] of the same molecule?
A: 44.3 µM (inactive)

Q: And the GI50 [2]?
A: 0.968 µM (active)

Q: And the GI50 [46]?
A: 6.31 µM (inactive)

Q: What about the GI50 [3] of the same molecule?
A: 13.8 µM (inactive)

Q: And the GI50 [4]?
A: 23.6 µM (inactive)

Q: And the GI50 [5]?
A: 5.92 µM (inactive)

Q: What about the GI50 [6] of the same molecule?
A: 0.386 µM (active)

Q: And the GI50 [7]?
A: 5.86 µM (inactive)

Q: And the GI50 [47]?
A: 4.72 µM

Q: And the GI50 [48]?
A: 6.58 µM (inactive)

Q: And the GI50 [8]?
A: 5.41 µM (inactive)

Q: And the GI50 [9]?
A: 4.28 µM (inactive)

Q: And the GI50 [49]?
A: 7.53 µM (inactive)

Q: And the GI50 [10]?
A: 1.21 µM (inactive)

Q: And the GI50 [11]?
A: 4.89 µM (inactive)

Q: And the GI50 [12]?
A: 11.9 µM (inactive)

Q: What about the GI50 [50] of the same molecule?
A: 21.6 µM (inactive)

Q: What about the GI50 [51] of the same molecule?
A: 7.53 µM (inactive)

Q: And the GI50 [52]?
A: 9.4 µM (inactive)

Q: What about the GI50 [13] of the same molecule?
A: 8.32 µM (inactive)

Q: What about the GI50 [14] of the same molecule?
A: 5.75 µM (inactive)

Q: What about the GI50 [15] of the same molecule?
A: 5.27 µM (inactive)

Q: And the GI50 [16]?
A: 7.23 µM (inactive)

Q: And the GI50 [53]?
A: 6.79 µM (inactive)

Q: What about the GI50 [17] of the same molecule?
A: 3.87 µM (inactive)

Q: And the GI50 [18]?
A: 8.11 µM (inactive)

Q: And the GI50 [19]?
A: 15.5 µM (inactive)

Q: And the GI50 [20]?
A: 2.02 µM (inactive)

Q: What about the GI50 [22] of the same molecule?
A: 5.21 µM (inactive)

Q: What about the GI50 [23] of the same molecule?
A: 14.8 µM (inactive)

Q: What about the GI50 [54] of the same molecule?
A: 7.52 µM (inactive)

Q: And the GI50 [24]?
A: 1.6 µM (inactive)

Q: What about the GI50 [26] of the same molecule?
A: 6.3 µM (inactive)

Q: And the GI50 [55]?
A: 6.37 µM (inactive)

Q: And the GI50 [27]?
A: 12.4 µM (inactive)

Q: What about the GI50 [28] of the same molecule?
A: 4.41 µM (inactive)

Q: What about the GI50 [29] of the same molecule?
A: 8.41 µM (inactive)

Q: What about the GI50 [30] of the same molecule?
A: 7.43 µM (inactive)

Q: What about the GI50 [31] of the same molecule?
A: 0.466 µM (active)

Q: What about the GI50 [56] of the same molecule?
A: 4.16 µM (inactive)

Q: What about the GI50 [33] of the same molecule?
A: 9.82 µM (inactive)

Q: What about the GI50 [57] of the same molecule?
A: 6.78 µM (inactive)

Q: And the GI50 [34]?
A: 6.15 µM (inactive)

Q: What about the GI50 [36] of the same molecule?
A: 7.41 µM (inactive)

Q: What about the GI50 [37] of the same molecule?
A: 5.12 µM (inactive)

Q: And the GI50 [58]?
A: 9.53 µM (inactive)

Q: And the GI50 [38]?
A: 5.35 µM (inactive)

Q: And the GI50 [59]?
A: 48 µM (inactive)

Q: And the GI50 [60]?
A: 6.17 µM (inactive)

Q: What about the GI50 [39] of the same molecule?
A: 5.62 µM (inactive)

Q: And the GI50 [41]?
A: 6 µM (inactive)

Q: And the GI50 [61]?
A: 3.75 µM (inactive)

Q: And the GI50 [42]?
A: 11.9 µM (inactive)

Q: What about the GI50 [62] of the same molecule?
A: 2.67 µM (inactive)

Q: What about the GI50 [43] of the same molecule?
A: 14.8 µM (inactive)

Q: What about the GI50 [63] of the same molecule?
A: 21 µM (inactive)

Q: What about the GI50 [44] of the same molecule?
A: 5.52 µM (inactive)

Q: What about the GI50 [64] of the same molecule?
A: 7.62 µM (inactive)
